In patent US20260070945A1, “MACROCYCLIC IMMUNOMODULATORS” (Bristol-Myers Squibb Company, priority 2022, published 2026):
*1 amine or outer side, *2 acyl side, *3 side chain or, on linkers, in order; H or OH if unused. Where a SMILES comes first, the peptide text is derived from it. Bridges are numbered along the chain shown (N, C = ends). [ ]: non-standard residue; d: D form. The star is where a group is joined. ξ: configuration not given here. Phe(3-CF3) = N[C@@H](Cc1cccc(C(F)(F)F)c1)C(=O)O; Phe(4-COOH) = N[C@@H](Cc1ccc(C(=O)O)cc1)C(=O)O; Bip = N[C@@H](Cc1ccc(-c2ccccc2)cc1)C(=O)O; Phe(3-Cl) = N[C@@H](Cc1cccc(Cl)c1)C(=O)O; NH(CH2)14COOH = O=C(O)CCCCCCCCCCCCCCN*; Phe(3-Me) = Cc1cccc(C[C@H](N)C(=O)O)c1; γGlu = O=C(O)[C@H](CCC(=O)[*:2])N[*:1]; NH(CH2)12COOH = O=C(O)CCCCCCCCCCCCN*; Val(3-OH) = CC(C)(O)[C@H](N)C(=O)O; hArg = N=C(N)NCCCC[C@H](N)C(=O)O; hhGln = NC(=O)CCCC[C@H](N)C(=O)O; 4Pal = N[C@@H](Cc1ccncc1)C(=O)O; Cha = N[C@@H](CC1CCCCC1)C(=O)O; Cit = NC(=O)NCCC[C@H](N)C(=O)O; Ile(3ξ) = CCC(C)[C@H](N)C(=O)O; Thr(3ξ) = CC(O)[C@H](N)C(=O)O; 12Ado = NCCCCCCCCCCCC(=O)O; Carboxymethyl = O=C(O)C*; NMeA = CN[C@@H](C)C(=O)O; Orn = NCCC[C@H](N)C(=O)O; dDap = NC[C@@H](N)C(=O)O; Aun = NCCCCCCCCCCC(=O)O; Dab = NCC[C@H](N)C(=O)O; AEEA = NCCOCCOCC(=O)O

biological target: T1, PD-1/PD-L1 interaction (PE-labeled human PD-L1-Ig binding to Jurkat cell line over-expressing human PD-1) (Homo sapiens, UniProt Q15116); experiment: Jurkat-PD-1 Cell Binding High-Content Screening Assay (CBA); details: Jurkat-hPD-1 cells, PE-labeled PD-L1-Ig 20 nM final; read-out: Jurkat HPD1 PDL1 IC50
T1 construct: expressed in transfected cells; host or cells: Jurkat
Method in brief: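 Read-out: high-content imaging of cell-bound PE fluorescence, with Hoechst 33342 nuclear counterstain after paraformaldehyde fixation. Before labeled ligand (20 nM final, 1 h) was added, compound sat on the cells for 2 h at 37 °C in DMEM/10% FCS.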

T1 sequence (Q15116 25-288): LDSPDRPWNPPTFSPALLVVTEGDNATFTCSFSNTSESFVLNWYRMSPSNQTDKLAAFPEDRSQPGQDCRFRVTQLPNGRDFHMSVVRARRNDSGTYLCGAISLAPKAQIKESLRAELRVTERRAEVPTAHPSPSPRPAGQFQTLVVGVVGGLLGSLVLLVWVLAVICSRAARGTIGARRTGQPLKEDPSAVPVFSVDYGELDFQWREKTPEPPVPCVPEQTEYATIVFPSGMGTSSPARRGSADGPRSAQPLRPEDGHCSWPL

SMILES	IC50 [µM]
CC(C)C[C@H]1NC(=O)[C@H](C)N(C)C(=O)[C@H](Cc2ccc(OCC(=O)O)cc2)NC(=O)[C@H](Cc2ccc(-c3ccccc3)cc2)NC(=O)[C@H](Cc2ccc(OCC(=O)O)cc2)NC(=O)[C@H](Cc2c[nH]c3ccccc23)NC(=O)[C@H](CC(=O)O)NC(=O)[C@H](Cc2ccc(OCC(=O)O)cc2)NC(=O)[C@H]([C@@H](C)O)NC(=O)CSC[C@@H](C(=O)N[C@@H](CCN)C(=O)NCCOCCOCC(=O)NCCCCCCCCCCC(=O)O)NC(=O)[C@H]([C@@H](C)O)NC(=O)[C@H](C(C)C)NC(=O)[C@H](CC2CCCCC2)NC(=O)[C@H](CCN)NC1=O [Example 1390] ({CH2CO}-TY(Carboxymethyl)DWY(Carboxymethyl)[Bip]Y(Carboxymethyl)[NMeA][dL][Dab][Cha]VTC[Dab][AEEA][Aun]-OH; thioether N-14)	0.0273
CC(C)C[C@@H]1NC(=O)[C@H](Cc2c[nH]c3ccccc23)NC(=O)[C@H](CC(=O)O)NC(=O)[C@H](Cc2ccc(OCC(=O)O)cc2)NC(=O)[C@H](Cc2ccccc2)NC(=O)CSC[C@@H](C(=O)N[C@@H](CCN)C(=O)NCCCCCCCCCCC(=O)O)NC(=O)[C@H]([C@@H](C)O)NC(=O)[C@H](C(C)C)NC(=O)[C@H](CC(C)C)NC(=O)[C@H](CC(N)=O)NC(=O)[C@@H](CC(C)C)NC(=O)[C@H](C)N(C)C(=O)[C@H](C(C)C)NC(=O)[C@H](Cc2ccc(-c3ccccc3)cc2)NC1=O [Example 1333] ({CH2CO}-FY(Carboxymethyl)DWL[Bip]V[NMeA][dL]NLVTC[Dab][Aun]-OH; thioether N-14)	0.0673
CC(C)C[C@H]1NC(=O)[C@H](C)N(C)C(=O)[C@H](CCCNC(N)=O)NC(=O)[C@H](Cc2ccc(-c3ccccc3)cc2)NC(=O)[C@H](Cc2ccc(C(=O)O)cc2)NC(=O)[C@H](Cc2cccc(C(F)(F)F)c2)NC(=O)[C@H](CC(=O)O)NC(=O)[C@H](Cc2ccc(OCC(=O)O)cc2)NC(=O)[C@H](Cc2ccc(C(=O)O)cc2)NC(=O)CSC[C@@H](C(=O)N[C@@H](CCN)C(=O)NCCCCCCCCCCCCC(=O)O)NC(=O)[C@H](Cc2c[nH]cn2)NC(=O)[C@H](C(C)(C)O)NC(=O)[C@H](CC2CCCCC2)NC(=O)[C@H](CCN)NC1=O [Example 1149] ({CH2CO}-[Phe(4-COOH)]Y(Carboxymethyl)D[Phe(3-CF3)][Phe(4-COOH)][Bip][Cit][NMeA][dL][Dab][Cha][Val(3-OH)]HC[Dab]-{NH(CH2)12COOH}; thioether N-14)	0.0152
CC(C)C[C@H]1NC(=O)[C@H](C)N(C)C(=O)[C@H](Cc2ccc(OCC(=O)O)cc2)NC(=O)[C@H](Cc2ccc(-c3ccccc3)cc2)NC(=O)[C@H](Cc2ccc(OCC(=O)O)cc2)NC(=O)[C@H](Cc2cccc(Cl)c2)NC(=O)[C@H](CC(=O)O)NC(=O)[C@H](Cc2ccc(OCC(=O)O)cc2)NC(=O)[C@H]([C@@H](C)O)NC(=O)CSC[C@@H](C(=O)N[C@@H](CCN)C(=O)NCCOCCOCC(=O)NCCCCCCCCCCC(=O)O)NC(=O)[C@H](CCC(=O)O)NC(=O)[C@H](C(C)C)NC(=O)[C@H](CC2CCCCC2)NC(=O)[C@H](CCN)NC1=O [Example 1229] ({CH2CO}-TY(Carboxymethyl)D[Phe(3-Cl)]Y(Carboxymethyl)[Bip]Y(Carboxymethyl)[NMeA][dL][Dab][Cha]VEC[Dab][AEEA][Aun]-OH; thioether N-14)	0.0152
Cc1cccc(C[C@@H]2NC(=O)[C@H](CC(=O)O)NC(=O)[C@H](Cc3ccc(OCC(=O)O)cc3)NC(=O)[C@H]([C@@H](C)O)NC(=O)CSC[C@@H](C(=O)N[C@@H](CCN)C(=O)NCCOCCOCC(=O)NCCCCCCCCCCC(=O)O)NC(=O)[C@H](CO)NC(=O)[C@H](C(C)C)NC(=O)[C@H](CC3CCCCC3)NC(=O)[C@H](CCN)NC(=O)[C@@H](CC(C)C)NC(=O)[C@H](C)N(C)C(=O)[C@H](Cc3ccc(OCC(=O)O)cc3)NC(=O)[C@H](Cc3ccc(-c4ccccc4)cc3)NC(=O)[C@H](Cc3ccc(OCC(=O)O)cc3)NC2=O)c1 [Example 1368] ({CH2CO}-TY(Carboxymethyl)D[Phe(3-Me)]Y(Carboxymethyl)[Bip]Y(Carboxymethyl)[NMeA][dL][Dab][Cha]VSC[Dab][AEEA][Aun]-OH; thioether N-14)	0.0181

The remaining lines, values ahead:

IC50 [µM]	SMILES
0.0122	CCC(C)[C@@H]1NC(=O)[C@H](Cc2ccc(-c3ccccc3)cc2)NC(=O)[C@H](C(C)C)NC(=O)[C@H](Cc2c[nH]c3ccccc23)NC(=O)[C@H](CC(=O)O)NC(=O)[C@H](Cc2ccc(O)cc2)NC(=O)[C@H](Cc2ccncc2)NC(=O)CSC[C@@H](C(=O)N[C@@H](CC(N)=O)C(=O)NCCOCCOCC(=O)N[C@@H](CCCN)C(=O)NCCCCCCCCCCC(=O)O)NC(=O)[C@H](CO)NC(=O)[C@H](C(C)C)NC(=O)[C@H](CC2CCCCC2)NC(=O)[C@H](CCN)NC(=O)[C@@H](CC(C)C)NC(=O)[C@H](C)N(C)C1=O (stereo partly drawn) [Example 2078] ({CH2CO}-[4Pal]YDWV[Bip][Ile(3ξ)][NMeA][dL][Dab][Cha]VSCN[AEEA][Orn][Aun]-OH; thioether N-14)
0.0358	CCC(C)[C@@H]1NC(=O)[C@H](Cc2ccc(-c3ccccc3)cc2)NC(=O)[C@H](C(C)C)NC(=O)[C@H](Cc2c[nH]c3ccccc23)NC(=O)[C@H](CC(=O)O)NC(=O)[C@H](Cc2ccc(OCC(=O)O)cc2)NC(=O)[C@H](C(C)O)NC(=O)CSC[C@@H](C(=O)N[C@@H](CCCN)C(=O)N[C@@H](CCC(=O)NCCCCCCCCCCCC(=O)O)C(=O)O)NC(=O)[C@H](CO)NC(=O)[C@H](C(C)C)NC(=O)[C@H](CC2CCCCC2)NC(=O)[C@H](CCN)NC(=O)[C@@H](CC(C)C)NC(=O)[C@H](C)N(C)C1=O (stereo partly drawn) [Example 2047] ({CH2CO}-[Thr(3ξ)]Y(Carboxymethyl)DWV[Bip][Ile(3ξ)][NMeA][dL][Dab][Cha]VSC[Orn][γGlu][12Ado]-OH; thioether N-14)
0.0236	Cc1cccc(C[C@@H]2NC(=O)[C@H](CC(=O)O)NC(=O)[C@H](Cc3ccc(C(=O)O)cc3)NC(=O)[C@H](Cc3ccc(OCC(=O)O)cc3)NC(=O)CSC[C@@H](C(=O)NCCOCCOCC(=O)NCCCCCCCCCCC(=O)O)NC(=O)[C@H](C(C)O)NC(=O)[C@H](C(C)C)NC(=O)[C@H](CC3CCCCC3)NC(=O)[C@H](CCN)NC(=O)[C@@H](CC(C)C)NC(=O)[C@H](C)N(C)C(=O)[C@H](CCC(N)=O)NC(=O)[C@H](Cc3ccc(-c4ccccc4)cc3)NC(=O)[C@H](C(C)C)NC2=O)c1 (stereo partly drawn) [Example 2284] ({CH2CO}-Y(Carboxymethyl)[Phe(4-COOH)]D[Phe(3-Me)]V[Bip]Q[NMeA][dL][Dab][Cha]V[Thr(3ξ)]C[AEEA][Aun]-OH; thioether N-14)
0.0192	CC(C)C[C@@H]1NC(=O)[C@H](Cc2c[nH]c3ccccc23)NC(=O)[C@H](CC(=O)O)NC(=O)[C@H](Cc2ccc(OCC(=O)O)cc2)NC(=O)[C@H](CCCCNC(=N)N)NC(=O)CSC[C@@H](C(=O)NCCOCCOCC(=O)N[C@@H](CCCNC(N)=O)C(=O)NCCCCCCCCCCC(=O)O)NC(=O)[C@H](CCCNC(N)=O)NC(=O)[C@H](C(C)C)NC(=O)[C@H](CC2CCCCC2)NC(=O)[C@H](CCN)NC(=O)[C@@H](CC(C)C)NC(=O)[C@H](C)N(C)C(=O)[C@H](C(C)C)NC(=O)[C@H](Cc2ccc(-c3ccccc3)cc2)NC1=O [Example 2183] ({CH2CO}-[hArg]Y(Carboxymethyl)DWL[Bip]V[NMeA][dL][Dab][Cha]V[Cit]C[AEEA][Cit][Aun]-OH; thioether N-14)
0.0112	CC(C)C[C@@H]1NC(=O)[C@H](Cc2c[nH]c3ccccc23)NC(=O)[C@H](CC(=O)O)NC(=O)[C@H](Cc2ccc(OCC(=O)O)cc2)NC(=O)[C@H](Cc2ccc(OCC(=O)O)cc2)NC(=O)CSC[C@@H](C(=O)N[C@@H](CCCN)C(=O)NCCOCCOCC(=O)NCCCCCCCCCCC(=O)O)NC(=O)[C@H](CCCCC(N)=O)NC(=O)[C@H](C(C)C)NC(=O)[C@H](CC2CCCCC2)NC(=O)[C@H](CCN)NC(=O)[C@@H](CC(C)C)NC(=O)[C@H](C)N(C)C(=O)[C@H](C(C)C)NC(=O)[C@H](Cc2ccc(-c3ccccc3)cc2)NC1=O [Example 2129] ({CH2CO}-Y(Carboxymethyl)Y(Carboxymethyl)DWL[Bip]V[NMeA][dL][Dab][Cha]V[hhGln]C[Orn][AEEA][Aun]-OH; thioether N-14)
0.0202	CCC(C)[C@@H]1NC(=O)[C@H](Cc2ccc(-c3ccccc3)cc2)NC(=O)[C@H](C(C)C)NC(=O)[C@H](Cc2c[nH]c3ccccc23)NC(=O)[C@H](CC(=O)O)NC(=O)[C@H](Cc2ccc(O)cc2)NC(=O)[C@H](Cc2ccncc2)NC(=O)CSC[C@@H](C(=O)N[C@H](CN)C(=O)NCCOCCOCC(=O)NCCCCCCCCCCC(=O)O)NC(=O)[C@H](C(C)O)NC(=O)[C@H](C(C)C)NC(=O)[C@H](CC2CCCCC2)NC(=O)[C@H](CCN)NC(=O)[C@@H](CC(C)C)NC(=O)[C@H](C)N(C)C1=O (stereo partly drawn) [Example 2071] ({CH2CO}-[4Pal]YDWV[Bip][Ile(3ξ)][NMeA][dL][Dab][Cha]V[Thr(3ξ)]C[dDap][AEEA][Aun]-OH; thioether N-14)

same assay, conditions: PE-labeled PD-L1-Ig 20 nM final, Jurkat-hPD-1 cells; read-out: Jurkat HPD1 PDL1 IC50

IC50 [µM]	SMILES
0.192	CC(C)C[C@H]1NC(=O)[C@H](C)N(C)C(=O)[C@H](Cc2ccc(OCC(=O)O)cc2)NC(=O)[C@H](Cc2ccc(-c3ccccc3)cc2)NC(=O)[C@H](Cc2ccc(C(=O)O)cc2)NC(=O)[C@H](Cc2cccc(C(F)(F)F)c2)NC(=O)[C@H](CC(=O)O)NC(=O)[C@H](Cc2ccc(OCC(=O)O)cc2)NC(=O)[C@H](C(C)O)NC(=O)CSC[C@@H](C(=O)N[C@@H](CCN)C(=O)NCCCCCCCCCCCCCCC(=O)O)NC(=O)[C@H](CCC(=O)O)NC(=O)[C@H](C(C)C)NC(=O)[C@H](CC2CCCCC2)NC(=O)[C@H](CCN)NC1=O (stereo partly drawn) [Example 2602] ({CH2CO}-[Thr(3ξ)]Y(Carboxymethyl)D[Phe(3-CF3)][Phe(4-COOH)][Bip]Y(Carboxymethyl)[NMeA][dL][Dab][Cha]VEC[Dab]-{NH(CH2)14COOH}; thioether N-14)
